Like-named read-outs stand apart in the source and are kept apart here.
Experiments:
[1] = molecular target: T1, interaction between HIF-1α and p300 (His-HIF-1α / GST-p300) (Homo sapiens, UniProt Q09472+Q16665); assay: Primary assay: fluorescence-based (DELFIA) screening assay for inhibition of the HIF-1α/p300 interaction; format: binding
T1 construct: corresponding to the C-terminal 390 amino acids into vector pET28a; A plasmid containing the N-terminal 595 amino acids of human p300; made in house; host or cells: E. coli
Method: Candidate compounds were assessed for their ability to inhibit the interaction between HIF-1α and p300 using a high throughput fluorescence-based screening assay (DELFIA) as follows.
A plasmid expressing His-HIF-1α fusion protein was constructed by PCR, by amplifying and subcloning a fragment of the human HIF-1α cDNA (NCBI GenBank, accession number AH006957) corresponding to the C-terminal 390 amino acids into vector pET28a (Novagen®, Madison, Wis., USA). A plasmid containing the N-terminal 595 amino acids of human p300 (NCBI GenBank, accession number U01877) inserted into vector pGEX2T (Pharmacia®, Little Chalfont, Bucks, UK) was used for the production of GST-p300 fusion protein. The recombinant proteins were produced in E. coli. His-HIF-1α was purified using Ni-NTA agarose beads, according to manufacture's method (Qiagen®, Crawley, West Sussex, UK). GST-p300 was purified using Glutathione-sepharose beads (Amersham Pharmacia®, Little Chalfont, Bucks, UK) according to manufacturer's instructions. A titration of every batch of p300 was carried out in order to determine the optimum dilution of the protein to obtain at least a 10:1 ratio signal to noise in the binding assay.
The assay was performed in 96-well Polysorb plates (Nalge Nunc International®, Rochester, N.Y., USA) as follows. Plates were coated with His-HIF-1α at 50 ng/well in […] and incubated overnight at 4° C. The plates were then washed 3 times with deionized water and blocked with 100 μL/well 3% BSA in PBS for 3 hours at 4° C. After washing 3 times as before, GST-p300 was added at the appropriate dilution (1:800 in this screening) in binding buffer (50 mM HEPES pH 7.5, 50 mM NaCl, 0.1% BSA, 0.5 mM DTT). The reaction was incubated at room temperature for 1 hour. Plates were washed 3 times and anti-GST Europium-conjugated antibody (from Wallac®, Turku, Finland) was added at 50 ng/well in […]. After 45 minutes incubation, plates were washed 3 times as before. Then, 100 μL/well enhancement solution (from Wallac®, Catalog No. 1244-105) was added and allowed to react for 15 minutes at room temperature. Plates were read on a Victor 2 plate reader (from Wallac®).

[2] = test system: VEGF promoter (VEGF-luciferase reporter) in Hepatoma 3B (hep3B) cells; assay: VEGF-luciferase cell-based reporter assay, desferoxamine-induced, Hepatoma 3B (hep3B) cells; settings: 15 h, read-out: Secondary Assay VEGF-luciferase IC50
Excerpt: This cell-based reporter assay involves the use of a luciferase reporter gene under the direct control of the VEGF promoter. Induction of HIF using desferoxamine leads to the transcription of luciferase through activation of the VEGF (Vascular Endothelial Growth Factor) promoter, which in turn leads to an increase in luciferase activity, which can be measured using most commercially available luciferase assay kits. Molecules that disrupt the HIF complex cause inhibition of HIF-dependent luciferase activation and lead to a reduction in luciferase activity. This assay allows the activity of the compounds to be assessed against the VEGF promoter, which is essential for VEGF production and subsequent angiogenesis.
Hepatoma 3B (hep3B) cells (ATCC Ref. No. HB-8064) were plated in 24-well plates at 2×10^4/well in 500 μL DMEM/10% FCS, and were transfected the following day using Fugene 6 (Roche Biochemicals®, Lewes, E. Sussex, UK). Transfection mixtures per well contained 6 μL 10% Fugene, 200 ng VEGF-luciferase reporter (rat VEGF promoter, NCBI GenBank, accession number U22373, Levy et al., 1995) and 2 ng TK-renilla (Promega®, Madison, Wis., USA) (for transfection efficiency control). Transfection was performed as recommended by manufacturer. Compounds were added the following day. After 1 hour incubation at 37° C., desferoxamine (Sigma®, Dorset, UK) was added at 100 μM to induce HIF activity. Duplicate wells without desferoxamine were run in parallel. Cells were harvested 15 hours later, and luciferase activity was measured using Dual Luciferase Assay System (Promega®, see also Technical Manual, Part #TM040, Instructions for Use of Products E1910 and E1960, revised May/1999).

[3] = read-out: Primary Assay Inhibition IC50

T1 sequence (Q16665 437-826 limits assumed): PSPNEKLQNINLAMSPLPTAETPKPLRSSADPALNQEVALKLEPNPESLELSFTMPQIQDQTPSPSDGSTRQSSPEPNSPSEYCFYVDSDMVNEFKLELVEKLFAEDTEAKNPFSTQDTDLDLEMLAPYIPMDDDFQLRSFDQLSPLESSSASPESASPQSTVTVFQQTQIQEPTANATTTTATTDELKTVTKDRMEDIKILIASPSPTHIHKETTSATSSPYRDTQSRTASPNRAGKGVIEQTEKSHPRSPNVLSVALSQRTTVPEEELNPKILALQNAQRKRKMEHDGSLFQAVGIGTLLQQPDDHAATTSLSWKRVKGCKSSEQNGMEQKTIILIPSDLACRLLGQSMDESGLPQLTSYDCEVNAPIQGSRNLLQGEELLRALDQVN
T1 sequence (Q09472 1-595 limits assumed): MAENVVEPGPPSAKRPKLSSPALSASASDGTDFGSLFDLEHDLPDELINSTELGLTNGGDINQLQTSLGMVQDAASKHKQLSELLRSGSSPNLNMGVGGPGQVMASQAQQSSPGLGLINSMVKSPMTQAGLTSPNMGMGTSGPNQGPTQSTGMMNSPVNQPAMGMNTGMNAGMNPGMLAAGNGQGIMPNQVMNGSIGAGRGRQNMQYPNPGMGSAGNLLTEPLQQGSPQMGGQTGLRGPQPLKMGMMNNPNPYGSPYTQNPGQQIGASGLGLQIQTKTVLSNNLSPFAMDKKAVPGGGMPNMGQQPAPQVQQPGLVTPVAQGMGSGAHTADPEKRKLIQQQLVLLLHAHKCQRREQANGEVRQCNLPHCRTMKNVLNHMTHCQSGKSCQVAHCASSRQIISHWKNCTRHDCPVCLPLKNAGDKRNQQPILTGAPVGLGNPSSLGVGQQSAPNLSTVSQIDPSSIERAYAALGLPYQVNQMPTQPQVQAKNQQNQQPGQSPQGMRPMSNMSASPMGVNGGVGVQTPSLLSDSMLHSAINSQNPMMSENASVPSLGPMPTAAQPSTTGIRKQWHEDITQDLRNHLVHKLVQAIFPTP

| Structure (SMILES) | IC50 [1, 3] [µM] | IC50 [2] [µM] | IC50 [1] [µM] |
| --- | --- | --- | --- |
| COc1cccc(-c2nc3c(=N)n(-c4ccc(Cl)cc4)c(=O)[nH]c3c(=O)[nH]2)c1O [P2081958] | 125 |  |  |
| N=c1c2nc(-c3ccccc3)[nH]c(=O)c2[nH]c(=O)n1-c1ccccc1 [P2082132] | 125 |  |  |
| N=c1c2nc(-c3ccc4c(c3)OCO4)[nH]c(=O)c2[nH]c(=O)n1-c1ccc(Cl)cc1 [P2082202] | 250 |  |  |
| COc1ccc(-c2nc3c(=N)n(-c4cccc(C(F)(F)F)c4)c(=O)[nH]c3c(=O)[nH]2)cc1OC [P2082229] | 125 |  |  |
| Cn1c(=O)c2c(ncn2CC(O)CN2CCN(c3cccc(Cl)c3)CC2)n(C)c1=O (stereo not drawn) [P2082796] | 150 |  |  |
| Cc1cc2nc3c(=O)[nH]c(=O)nc-3n(CC(O)C(O)C(O)CO)c2cc1C (stereo not drawn) [P2083033] |  | 20 |  |
| O=C1NC(=O)C(=Cc2c(F)cccc2Cl)C(=O)N1 [PX069119] |  |  | 250 |
| COc1cc(C=C2C(=O)NC(=O)NC2=O)c([N+](=O)[O-])cc1OCc1ccccc1 [PX069153] |  |  | 200 |
| O=C1NC(=O)C(=Cc2ccc(Cl)c(Cl)c2)C(=O)N1 [PX072002] |  |  | 225 |
| COc1ccc(C=C2C(=O)NC(=O)NC2=O)cc1OC [PX072004] |  |  | 250 |
| COc1cc(C=C2C(=O)NC(=O)NC2=O)ccc1O [PX072008] |  |  | 300 |
| CCOc1ccc(C=C2C(=O)NC(=O)NC2=O)cc1 [PX072012] |  |  | 175 |
| O=C1NC(=S)NC(=O)C1=C/C=C/c1ccccc1 [PX072015, 5-(3-Phenyl-allylidene)-2-thioxo-dihydro-pyrimidine-4,6-dione] |  | 18 |  |
| COc1ccc(C=C2C(=O)NC(=O)NC2=O)c(Cl)c1OC [PX074728] |  |  | 125 |
| O=C1NC(=O)C(=Cc2ccc3c(c2)OCO3)C(=O)N1 [PX075240] |  |  | 100 |
| O=C1NC(=O)C(=Cc2cccc(OCc3ccccc3)c2)C(=O)N1 [PX075245] |  |  | 125 |
| CCOc1ccccc1C=C1C(=O)NC(=O)NC1=O [PX075248] |  |  | 450 |
| COc1ccc(OC)c(C=C2C(=O)NC(=O)NC2=O)c1 [PX075257] |  |  | 350 |
| COc1ccc(C=C2C(=O)NC(=S)NC2=O)cc1OC [PX075262, 5-(3,4-Dimethoxy-benzylidene)-2-thioxo-dihydro-pyrimidine-4,6-dione] |  |  | 65 |

| Structure (SMILES) | IC50 [1, 3] [µM] | IC50 [2] [µM] | IC50 [1] [µM] |
| --- | --- | --- | --- |
| COc1ccc(-c2nc3c(=N)n(-c4ccc(Cl)cc4)c(=O)[nH]c3c(=O)[nH]2)cc1 [PX081770] | 125 |  |  |
| O=C1NC(=S)NC(=O)C1=Cc1ccco1 [PX083634, 5-(Furan-2-ylmethylene)-2-thioxo-dihydro-pyrimidine-4,6-dione] |  | 50 | 65 |
| O=C1NC(=O)C(=Cc2ccccc2Cl)C(=O)N1 [PX083677] |  |  | 400 |
| Cn1c(=O)[nH]c(=O)c2c1nc(N)n2CC(O)COc1ccc(Cl)cc1 (stereo not drawn) [PX084819] | 10 | 50 |  |
| Cc1cc2nc3c(=O)n(CC(=O)O)c(=O)nc-3n(C)c2cc1C [PX088992] | 10 | 20 |  |
| O=C1NC(=O)C(=Cc2ccc(Cl)cc2Cl)C(=O)N1 [PX089367] |  |  | 200 |
| O=C1NC(=O)C(=Cc2ccccc2)C(=O)N1 [PX089368] |  |  | 350 |
| O=C1NC(=O)C(=CC2CC=CCC2)C(=O)N1 (stereo not drawn) [PX089369] |  |  | 225 |
| O=C1NC(=O)C(=C/C=C/c2ccccc2)C(=O)N1 [PX089370] |  |  | 225 |
| COc1cccc(C=C2C(=O)NC(=O)NC2=O)c1OC [PX089371] |  |  | 400 |
| O=C1NC(=O)C(=Cc2ccc(O)c(O)c2)C(=O)N1 [PX089374] |  |  | 230 |
| COc1ccc(C=C2C(=O)NC(=O)NC2=O)cc1 [PX089375] |  |  | 200 |
| O=C1NC(=O)C(=Cc2cccc(O)c2)C(=O)N1 [PX089376] |  |  | 200 |
| O=C1NC(=O)C(=Cc2ccc(O)cc2)C(=O)N1 [PX089377] |  |  | 400 |
| O=C1NC(=S)NC(=O)C1=C/C=N/Nc1ccccc1 [PX089619] |  |  | 180 |
| O=C1NC(=O)C(=C/C=N/Nc2ccccc2)C(=O)N1 [PX089620] |  |  | 80 |
| CN(C)c1ccc(C=C2C(=O)N(c3ccccc3)C(=S)N(c3ccccc3)C2=O)cc1[N+](=O)[O-] [PX089626] |  | 75 | 40 |
| CC(=O)Nc1ccc(C=C2C(=O)NC(=S)NC2=O)cc1 [PX089632, N-[4-(4,6-Dioxo-2-thioxo-tetrahydro-pyrimidin-5-ylidenemethyl)-phenyl]-acetamide] |  |  | 15 |
| CCOc1ccc(Br)cc1C=C1C(=O)NC(=S)NC1=O [PX089633] |  | 50 | 70 |

| Structure (SMILES) | IC50 [1, 3] [µM] | IC50 [2] [µM] | IC50 [1] [µM] |
| --- | --- | --- | --- |
| O=C1NC(=S)NC(=O)C1=Cc1cccs1 [PX089638] |  |  | 130 |
| O=C1NC(=S)NC(=O)C1=Cc1ccc(Cl)cc1 [PX089640, 5-(4-Chloro-benzylidene)-2-thioxo-dihydro-pyrimidine-4,6-dione] |  |  | 100 |
| COc1ccc(C=C2C(=O)N(c3ccccc3)C(=S)N(c3ccccc3)C2=O)cc1OC [PX089646] |  |  | 100 |
| CCN(CC)c1ccc(C=C2C(=O)N(c3ccccc3)C(=S)N(c3ccccc3)C2=O)cc1 [PX089647] |  |  | 100 |
| COc1ccc(C=C2C(=O)NC(=S)NC2=O)cc1OCc1ccccc1 [PX105990, 5-(3-Benzyloxy-4-methoxy-benzylidene)-2-thioxo-dihydro-pyrimidine-4,6-dione] |  |  | 20 |
| COc1ccccc1C=C1C(=O)NC(=S)NC1=O [PX105993, 5-(2-Methoxy-benzylidene)-2-thioxo-dihydro-pyrimidine-4,6-dione] |  |  | 80 |
| O=C1NC(=S)NC(=O)C1=Cc1c2ccccc2cc2ccccc12 [PX106031, 5-(Anthracen-9-ylmethylene)-2-thioxo-dihydro-pyrimidine-4,6-dione] |  | 50 |  |
| Cc1ccccc1N1C(=O)/C(=C/c2ccco2)C(=O)NC1=S [PX106130] |  |  | 29 |
| Cc1cc(C=C2C(=O)NC(=S)NC2=O)c(C)n1-c1sc2c(c1C#N)CCCC2 [PX106174] |  |  | 43 |
| O=C1NC(=S)N(c2ccc(F)cc2)C(=O)/C1=C/c1ccc(-c2ccc(Cl)c(C(=O)O)c2)o1 [PX106244] |  |  | 40 |
| O=C1NC(=S)N(c2ccc(F)cc2)C(=O)/C1=C/c1ccc2c(c1)OCO2 [PX106255] |  |  | 3 |
| COc1ccc2cccc(/C=C3/C(=O)NC(=S)N(c4ccc(Br)cc4)C3=O)c2c1 [PX106265] |  | 32 | 50 |
| COc1ccc(OC)c(N2C(=O)/C(=C/c3ccco3)C(=O)NC2=S)c1 [PX106274] |  |  | 29 |
| COc1cccc(N2C(=O)/C(=C/c3ccsc3)C(=O)NC2=S)c1 [PX106287] |  | 100 |  |
| O=C1NC(=S)N(c2ccc(Cl)cc2)C(=O)/C1=C/C=C/c1ccco1 [PX106291] |  |  | 80 |
| Cc1ccc(N2C(=O)/C(=C/c3ccoc3)C(=O)NC2=S)cc1 [PX106297] |  | 100 | 32 |
| O=C1NC(=S)NC(=O)C1=Cc1ccc(-c2cc(Cl)ccc2Cl)o1 [PX106326] |  | 50 | 40 |
| O=C1NC(=S)NC(=O)C1=Cc1ccccc1OCc1ccccc1F [PX106343] |  | 100 | 49 |
| O=C1NC(=S)NC(=O)C1=Cc1ccc(/C=C/c2ccccc2)cc1 [px106027, 5-(4-Styryl-benzylidene)-2-thioxo-dihydro-pyrimidine-4,6-dione] |  | 75 |  |

From patent publication US20030229108A1, “Barbituric acid analogs as therapeutic agents” (priority 2000, published 2003)
